Measurements as given in patent US20040110287A1, “Multi-step method for the differentiation of insulin positive, glucose responsive cells” (ES Cell International Pte Ltd., priority 2002, published 2004).

System: islet-like structures
Assay: Glucose-stimulated insulin release and insulin content of islet-like structures
Assay type: cell-based
Details: 3 mM or 20 mM glucose, factor added to culture
Description: After the complete differentiation protocol described in detail in Example 2, the islet-like structures were cultured in the presence of either 3 mM glucose or 20 mM glucose to assay for glucose-stimulated insulin release. Insulin release and total insulin content were measured using standard methods. Additionally, factors were added to the culture of islet-like structures.

Compound | responsiveness of islet-like structures to high glucose (insulin release)
leptin | increased the responsiveness
exendin-4 [reference compound] | increased the responsiveness
Desert hedgehog | increased the responsiveness
CC(C)(COP(=O)(O)OP(=O)(O)OC[C@H]1O[C@@H](n2cnc3c(N)ncnc32)[C@H](O)[C@@H]1OP(=O)(O)O)[C@@H](O)C(=O)NCCC(=O)NCCSC(=O)CC(=O)O [malonyl CoA, reference compound] | increased the responsiveness
Indian hedgehog | increased the responsiveness
Sonic hedgehog | increased the responsiveness
NC(=O)c1cccnc1 [nicotinamide, reference compound] | increased the responsiveness
